Measurements taken from PubChem BioAssay (NCI).
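At the GI50, growth is halved. TGI: concentration producing complete growth inhibition.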

Key:
Test in all cases: NCI anticancer screen, dose series, 384-well format
NCI-H522 lung = system: NCI-H522 lung
SK-MEL-5 melanoma = system: SK-MEL-5 melanoma
MDA-MB-435 melanoma = system: MDA-MB-435 melanoma
SF-268 CNS = system: SF-268 CNS
BT-549 breast = system: BT-549 breast
OVCAR-5 ovarian = system: OVCAR-5 ovarian
TK-10 renal = system: TK-10 renal
IGROV1 ovarian = system: IGROV1 ovarian
OVCAR-8 ovarian = system: OVCAR-8 ovarian
MDA-MB-468 breast = system: MDA-MB-468 breast
U251 glioblastoma = system: U251 glioblastoma
SK-OV-3 ovarian = system: SK-OV-3 ovarian
HCC-2998 colon = system: HCC-2998 colon
RPMI-8226 leukemia = system: RPMI-8226 leukemia
COLO 205 colon = system: COLO 205 colon
SK-MEL-2 melanoma = system: SK-MEL-2 melanoma
PC-3 prostate = system: PC-3 prostate
SNB-19 CNS = system: SNB-19 CNS
HOP-92 NSCLC = system: HOP-92 NSCLC
KM12 colon = system: KM12 colon
OVCAR-3 ovarian = system: OVCAR-3 ovarian
MCF7 breast = system: MCF7 breast
LOX IMVI melanoma = system: LOX IMVI melanoma
NCI-H23 lung = system: NCI-H23 lung
SF-295 CNS = system: SF-295 CNS
NCI-H460 NSCLC = system: NCI-H460 NSCLC
HL-60(TB) leukemia = system: HL-60(TB) leukemia
HOP-62 NSCLC = system: HOP-62 NSCLC
786-0 renal = system: 786-0 renal

**Q.** What does the source list for `COc1cccc2c1C(=N)c1c(O)c3c(c(O)c1C2=O)C[C@@](O)(C(C)=O)C[C@@H]3O[C@H]1C[C@H](N)[C@H](O)[C@H](C)O1`?
**A.** TGI (NCI-H522 lung): 206 nM; GI50 (SK-MEL-5 melanoma): 97.3 nM; TGI (SK-MEL-5 melanoma): 437 nM; GI50 (MDA-MB-435 melanoma): 166 nM; TGI (MDA-MB-435 melanoma): 1090 nM; GI50 (SF-268 CNS): 59.9 nM; TGI (SF-268 CNS): 262 nM; GI50 (BT-549 breast): 116 nM; TGI (BT-549 breast): 335 nM; GI50 (OVCAR-5 ovarian): 179 nM; TGI (OVCAR-5 ovarian): 583 nM; GI50 (TK-10 renal): 128 nM; TGI (TK-10 renal): 403 nM; GI50 (IGROV1 ovarian): 343 nM; TGI (IGROV1 ovarian): 2010 nM; GI50 (OVCAR-8 ovarian): 42.9 nM; TGI (OVCAR-8 ovarian): 745 nM; GI50 (MDA-MB-468 breast): 41.8 nM; TGI (MDA-MB-468 breast): 153 nM; GI50 (U251 glioblastoma): 50.9 nM; TGI (U251 glioblastoma): 187 nM; GI50 (SK-OV-3 ovarian): 88.4 nM; TGI (SK-OV-3 ovarian): 270 nM; GI50 (HCC-2998 colon): 114 nM; TGI (HCC-2998 colon): 272 nM; GI50 (RPMI-8226 leukemia): < 10 nM; TGI (RPMI-8226 leukemia): 22.3 nM; GI50 (COLO 205 colon): 44.8 nM; TGI (COLO 205 colon): 231 nM; GI50 (SK-MEL-2 melanoma): 184 nM; TGI (SK-MEL-2 melanoma): 345 nM; GI50 (PC-3 prostate): 224 nM; TGI (PC-3 prostate): 1330 nM; GI50 (SNB-19 CNS): 63.3 nM; TGI (SNB-19 CNS): 376 nM; GI50 (HOP-92 NSCLC): 62.9 nM; TGI (HOP-92 NSCLC): 278 nM; GI50 (KM12 colon): 66 nM; TGI (KM12 colon): 206 nM; GI50 (OVCAR-3 ovarian): 102 nM; TGI (OVCAR-3 ovarian): 353 nM; GI50 (MCF7 breast): 61.2 nM; TGI (MCF7 breast): 1360 nM; GI50 (LOX IMVI melanoma): 144 nM; TGI (LOX IMVI melanoma): 338 nM; GI50 (NCI-H23 lung): 47.9 nM; TGI (NCI-H23 lung): 200 nM; GI50 (SF-295 CNS): 103 nM; TGI (SF-295 CNS): 345 nM; GI50 (NCI-H460 NSCLC): 28.2 nM; TGI (NCI-H460 NSCLC): 126 nM; GI50 (HL-60(TB) leukemia): < 10 nM; TGI (HL-60(TB) leukemia): < 10 nM; GI50 (HOP-62 NSCLC): 51.3 nM; TGI (HOP-62 NSCLC): 173 nM; GI50 (786-0 renal): 86.9 nM; TGI (786-0 renal): 244 nM
